Test results published in patent US5869659A, “Heteroatom-containing cyclopentanopyridyl-oxazolidinones” (Bayer Aktiengesellschaft, priority 1996, dated 1999).
In brackets after ≈: the same amount, converted by molar mass. Where two headings read alike, the source gives them in different places.

Legend:
Format in all cases: cell-based
E. coli Neumann = test: MIC by serial dilution on Iso-Sensitest agar; settings: Escherichia coli
Protocol: (§1) The minimum inhibitory concentrations (MICs) were determined by serial dilution tests on Iso-Sensitest agar (Oxoid). For each test substance, a number of agar plates were prepared which contained decreasing concentrations of the active compound. The agar plates were inoculates using a multipoint inoculator (Denley). For inoculation, overnight cultures of the pathogenic organisms were used which had previously been diluted such that each inoculation point contained about 10^4 colony-forming particles. The inoculated agar plates were incubated at 37° C., and the microorganism growth was read off after about 20 hours. The MICs (μg/ml) indicates the lowest active compound concentration at which no growth could be detected using the naked eye.

Klebs. 57 USA = test: MIC by serial dilution on Iso-Sensitest agar
Protocol: as §1

Psdm. Bonn = test: MIC by serial dilution on Iso-Sensitest agar
Protocol: as §1

Staph. 133 = test: MIC by serial dilution on Iso-Sensitest agar; settings: 37° C., about 20 hours
Protocol: as §1

Staph. 25701 = test: MIC by serial dilution on Iso-Sensitest agar; settings: 37° C., about 20 hours
Protocol: as §1

Staph. 48N = test: MIC by serial dilution on Iso-Sensitest agar; settings: 37° C., about 20 hours
Protocol: as §1

Staph. 9TV = test: MIC by serial dilution on Iso-Sensitest agar
Protocol: as §1

[1] = test system: Mycobacterium smegmatis DSM 43061; test: MIC for rapidly growing mycobacteria by broth microdilution; settings: Mycolicibacterium smegmatis, DSM43061
Protocol: (§2) For rapidly growing mycobacteria, the MIC determination was carried out following the method of broth microdilution described by Swenson [cf. J. M. Swenson, C. Thornberry, U. A. Silcox, Rapidly growing mycobacteria. Testing of suceptibility to 34 antimicrobial agents by broth microdilution. Antimicrobial Agents and Chemotherapy Vol. 22, 186-192 (1982)]. A deviation from this was the brain-heart extract medium treated with 0.1% by volume of Tween 80.
(§3) The mycobacterial strains used were obtained from the DSM (German Collection of Microorganisms, Braunschweig). They were incubated at 37° C. in a humid chamber.
(§4) The MICs were read off after 2-4 days when the preparation-free controls had become cloudy as a result of growth.

[2] = test system: Mycobacterium smegmatis DSM 43465; test: as above; settings: Mycolicibacterium smegmatis, DSM43465
Protocol: as §2, §3, §4

[3] = Staph. 9TV, 37° C., about 20 hours, read-out: MIC
[4] = DSM 43061, brain-heart extract medium with 0.1% Tween 80, 37° C., 2-4 days, read-out: MIC
[5] = DSM 43465, brain-heart extract medium with 0.1% Tween 80, 37° C., 2-4 days, read-out: MIC
[6] = E. coli Neumann, 37° C., about 20 hours, read-out: MIC
[7] = Klebs. 57 USA, 37° C., about 20 hours, read-out: MIC
[8] = Psdm. Bonn, 37° C., about 20 hours, read-out: MIC

Compound	MIC (E. coli Neumann; 20 h) [µg/mL]	MIC (Klebs. 57 USA; 20 h) [µg/mL]	MIC (Psdm. Bonn; 20 h) [µg/mL]	MIC (Staph. 133) [µg/mL]	MIC (Staph. 25701) [µg/mL]	MIC (Staph. 48N) [µg/mL]	MIC (Staph. 9TV; [3]) [µg/mL]	MIC [1, 4] [µg/mL]	MIC [2, 5] [µg/mL]	MIC (E. coli Neumann; [6]) [µg/mL]	MIC (Klebs. 57 USA; [7]) [µg/mL]	MIC (Psdm. Bonn; [8]) [µg/mL]	MIC (Staph. 9TV; 20 h) [µg/mL]	MIC [1] [µg/mL]	MIC [2] [µg/mL]
Cn1c(=O)oc2cc(N3CC(CNC(=O)C4CC4)OC3=O)cnc21 (racemic) [Example 11]	> 64	> 64	> 64	8 (≈ 24.1 µM)	8 (≈ 24.1 µM)	8 (≈ 24.1 µM)	4 (≈ 12 µM)	8 (≈ 24.1 µM)	4 (≈ 12 µM)	–	–	–	–	–	–
CCC(=O)NCC1CN(c2cnc3c(c2)oc(=O)n3C)C(=O)O1 (racemic) [Example 12]	–	–	–	8 (≈ 25 µM)	8 (≈ 25 µM)	8 (≈ 25 µM)	–	–	–	> 64	> 64	> 64	4 (≈ 12.5 µM)	4 (≈ 12.5 µM)	4 (≈ 12.5 µM)
COC(=O)NCC1CN(c2cnc3c(c2)oc(=O)n3C)C(=O)O1 (racemic) [Example 13]	–	–	–	8 (≈ 24.8 µM)	8 (≈ 24.8 µM)	8 (≈ 24.8 µM)	4 (≈ 12.4 µM)	8 (≈ 24.8 µM)	8 (≈ 24.8 µM)	> 64	> 64	> 64	–	–	–
CC(=O)NCC1CN(c2cnc3c(c2)oc(=O)n3C)C(=O)O1 (stereo not shown) [Example 10, 5-Acetylaminomethyl-3-(3-methyloxazolo[4,5-b]-pyridin-2(3H)-on-6yl)oxazolidin-2-one]	> 64	> 64	> 64	–	8 (≈ 26.1 µM)	8 (≈ 26.1 µM)	4 (≈ 13.1 µM)	4 (≈ 13.1 µM)	4 (≈ 13.1 µM)	–	–	–	–	–	–
CC(=O)NC[C@H]1CN(c2ccc3nc(C)sc3n2)C(=O)O1 [Example 14]	–	–	–	4 (≈ 13.1 µM)	4 (≈ 13.1 µM)	8 (≈ 26.1 µM)	2 (≈ 6.53 µM)	–	–	> 64	> 64	> 64	–	–	–
NNC(=O)c1ccncc1 [Isoniazide, reference compound]	–	–	–	–	–	–	–	4 (≈ 29.2 µM)	1 (≈ 7.29 µM)	–	–	–	–	–	–
[H]/N=C(/N)N[C@H]1[C@H](O)[C@@H](O)[C@H](O[C@@H]2O[C@@H](C)[C@](O)(C=O)[C@H]2O[C@@H]2O[C@@H](CO)[C@H](O)[C@@H](O)[C@@H]2NC)[C@@H](N/C(N)=N\[H])[C@@H]1O [Streptomycin, reference compound]	–	–	–	–	–	–	–	–	–	–	–	–	–	4 (≈ 6.88 µM)	4 (≈ 6.88 µM)
